The values below come from patent publication US20120128639A1, “In Vitro Production Of Oligodendrocytes From Human Umbilical Cord Stem Cells” (UNIVERSITY OF CENTRAL FLORIDA RESEARCH FOUNDATION, INC., priority 2009, published 2012).

Values joined by “and” are separate entries in the source; they are usually repeats but may differ in a detail not shown here. Identical values can stand only once. “Also recorded” adds a separate entry of the source.

Assay [1] relates to human multipotent progenitor cells (MLPCs) from umbilical cord. Nature of the assay: Immunocytochemical analysis of MLPC differentiation into oligodendrocyte lineage in 2D environment. Format: cell-based. On the procedure:
(§1) To characterize cells by immunocytochemistry, the top coverslips, if present, were first carefully removed. Cells were then briefly washed with Hanks' balanced salts solution and fixed in 4% paraformaldehyde for about 18 min. Fixed cells were stored in PBS, permeabilized with 0.5% Triton 100× in PBS for 7 min. blocked with 5% donkey serum for 1 hr, followed by incubation with primary antibody overnight at 4° C. Primary antibodies were mouse monoclonal A2B5 (MAB312, 1:250). O4 (MAB345, 1:100). O1 (MAB344, 1:200), MBP (1:25), rabbit polyclonal anti-galactocerebroside (AB142, 1:200), all from Chemicon, mouse monoclonal beta-2-AR (sc-81577, 1:200), rabbit polyclonal beta-1AR (sc-567, 1:250) from Santa Cruz Biotechnology, and alpha-1-AR (ab3462, 1:1000, Abcam Inc. Cambridge, Mass.). Following a PBS washing, cells were incubated with an Alexa Fluor 488-conjugated anti-mouse IgG or Alexa Fluor 488-conjugated anti-rabbit IgG for 2 hours at room temperature. After a PBS washing, the coverslips were mounted with Vectashield mounting medium (H1000, Vector Laboratories, Burlingame, Calif.) onto slides. For visualizing cellular nuclei, the specimens were counterstained with DAPI. Immunoreactivity was observed and analyzed by using an Ultra VIEW™ LCI confocal imaging system (Perkin Elmer).

The test system is the same in assay [2]. Nature of the assay: Morphological analysis of MLPC differentiation in 2D environment. Format: cell-based. Conditions: for need of the factor for the desired morphology (omission from differentiation medium): 15 days in differentiation medium.
Experimental: MLPCs were seeded on DETA-coated glass coverslips (18 mm) at a density of 4×10^3 cells/cm^2 in growth medium. After 3 days, at about 60% confluency, cells were incubated for 24 hours in pre-induction medium, consisting of DMEM, 15% FBS. […] To initiate differentiation, the pre-induction medium was removed, the cells were washed 2× with Hanks' balanced salts solution (Gibco BRL) and transferred to serum-free differentiation medium.
For assay [3] the test system is unchanged. Nature of the assay: Immunocytochemical analysis of MLPC differentiation in 3D environment (NE or AR agonists). The format is cell-based. The note with it: for cells stained positively for A2B5 / cells stained positively for MBP / cells stained positively for O4 / cells stained positively for O1 galactocerebroside: 30 days of differentiation, 20 μM added daily. On the procedure:
To characterize cells by immunocytochemistry, the top coverslips, if present, were first carefully removed. […] Cambridge, Mass.). Following a PBS washing, cells were incubated with an Alexa Fluor 488-conjugated anti-mouse IgG or Alexa Fluor 488-conjugated anti-rabbit IgG for 2 hours at room temperature. After a PBS washing, the coverslips were mounted with Vectashield mounting medium ([…], Vector Laboratories, Burlingame, Calif.) onto slides. For visualizing cellular nuclei, the specimens were counterstained with DAPI. Immunoreactivity was observed and analyzed by using an Ultra VIEWTM LCI confocal imaging system (Perkin Elmer).

Assay [4] has the same test system. The note with it: 3D environment; for need of the growth factor for process formation: presence or absence in medium. On the procedure: MLPCs were seeded on DETA-coated glass coverslips (18 mm) at a density of 4×10^3 cells/cm^2 in growth medium. After 3 days, at about 60% confluency, cells were incubated for 24 hours in pre-induction medium, consisting of DMEM, 15% FBS. FGF-2, EGF (20 ng/ml each, R & D Systems, Minneapolis, Minn.) and PDGF-AA (10 ng/ml, Chemicon International, Temecula, Calif.). To initiate differentiation, the pre-induction medium was removed, the cells were washed 2× with Hanks' balanced salts solution (Gibco BRL) and transferred to serum-free differentiation medium.
Construction of 3D Environment MLPCs were plated on DETA-coated glass coverslips (18 mm) in growth medium. At about 60% confluence, growth medium was replaced with pre-induction medium. After the medium replacement, another set of coverslips was placed on the top of the cells. Prior to the placement, top coverslips were ethanol sterilized and washed in the pre-induction medium. After 24 hours the pre-induction medium was removed, the cells were washed 2× with Hanks' Balanced Salts Solution and transferred to serum-free differentiation medium.
Phase-contrast images were taken with a commercial Nikon Coolpix 990 camera using the Zeiss Axiovert S100 microscope. Pictures were analyzed using Scion Image Software (Scion Corp., Frederick, Md.).
The morphological and immunocytochemical quantification was performed on undifferentiated stem cells or cells during various differentiation stages. For each coverslip, at least 10 pictures were taken from randomly chosen views under 200× magnification. All the marker-positive cells were counted, as well as the total number of cells in these views. At least three coverslips in each group were quantified and data were expressed as average±standard deviation (SD). Statistical differences between different experimental groups were analyzed by Student's t-test.

The subject of assay [5] is α1-ARs. Nature of the assay: Immunocytochemical analysis of α1-AR expression in MLPCs. The format is cell-based, human. Conditions: undifferentiated MLPCs; 24 hrs treatment with bFGF alone. The method, then: as §1
Where [6] appears, read: 8 days of differentiation, differentiation medium with 20 μM NE.

As to `NC[C@H](O)c1ccc(O)c(O)c1` [NE, norepinephrine], the “expression of MBP” value in assay [1] (8 days of differentiation) is given as “absent”. Besides, in assay [1] (setting [6]), the “cells with positive staining for A2B5” value was 72.4% and 72.4±3.4%; the “cells with positive staining for O4” value is 69.9% and 69.9±4.9%. Further, in assay [1] (day 15 of differentiation), the “cells with positive staining for A2B5” value was 70.3% and the “cells with positive staining for O4” value came out at 69.7%. In addition, in assay [1] (day 20 of differentiation), the MBP staining entry is reported as “negative”; the O1 staining result was “negative”; the “cells A2B5 positive” value is 35.0% and 35.0±4.8%; the “cells O4 positive” value is 49.7% and 49.7±7.9%. In addition, in assay [1] (differentiating cells, time not stated (FIG. 3B)), the “expression of MBP” value was “absent”. Also, the “need of the factor for the desired morphology (omission from differentiation medium)” value in assay [2] is “essential”. Also, the “cells that developed multiple processes” value in assay [2] (within 8 days of differentiation) is recorded as “approximately 70%”. Besides, in assay [3] (20 days of differentiation), the MBP staining entry is on record as “negative” and the O1 staining entry was “negative”. In addition, in assay [3], the “cells stained positively for A2B5” value was 57.7% and 57.7±3.6%; the “cells stained positively for MBP” value is 15.2% and 15.2±0.5%; the “cells stained positively for O4” value is 79.6% and 79.6±2.9%. Further, the “survival of differentiated cells in culture” value in assay [4] is “more than 40 days”.
On to PDGF, for which the “need of the growth factor for process formation” value in assay [4] is given as “required”.
As for `COC(=O)[C@@]1(O)C[C@H]2O[C@]1(C)n1c3ccccc3c3c4c(c5c6ccccc6n2c5c31)C(=O)NC4` [K252a], in assay [2], the “need of the factor for the desired morphology (omission from differentiation medium)” value is “essential”.
Turning to “bFGF: growth factor in pre-induction and differentiation medium”, the “need of the growth factor for process formation” value in assay [4] is “not essential”. The “nuclear expression of α1-ARs” value in assay [5] is on record as “significant increase in staining intensity; also recorded: increase nuclear expression of α1-ARs”.
Take `CNC[C@H](O)c1cccc(O)c1` [phenylephrine]: in assay [3], the “cells stained positively for A2B5” value worked out at 40.5±3.4%, the “cells stained positively for O1 galactocerebroside” value is given as 15.2±1.5% and the “cells stained positively for O4” value was found to be 39.8±2.8%. Besides, the “cells with more mature morphology with developed processes” value in assay [4] (day 30) is 10% and 15%. Further, the “cells that began to develop processes” value in assay [4] (within 15 days of differentiation) is reported as “approximately 40%”.
For the compound `CC(C)NCC(O)c1ccc(O)c(O)c1` (centres unmarked) [isoproterenol], in assay [3], the “cells stained positively for A2B5” value came out at 57.9±4.9%, the “cells stained positively for MBP” value was “negative”, the “cells stained positively for O1 galactocerebroside” value was “negative” and the “cells stained positively for O4” value is reported as 42.5±2.7%. Also, in assay [4] (daily treatment, first 15 days, unchanged within 30 days), the “cells displaying a bipolar morphology” value is “approximately 60%”.
